# Experimental data reported in patent US10413583B2, “Synthetic substrates for enzymes that catalyze reactions of modified cysteines and related methods” (The University of Chicago, priority 2016, dated 2019).
# Tests used:
# HEPG2 cells [1] = assay: Fluorescence imaging of RDP-1 with HEPG2 cells (PalmB, palmitate); format: cell-based, human; details: palmitate pretreatment for 6 hours
# Protocol: HEPG2 were plated with […] of DMEM (Gibco, Gaithersburg, Md., United States of America; High Glucose, Glutamax, 10% FBS) a four well chambered imaging dish (D35C4-20-1.5-N, Cellvis, Mountain View, Calif., United States of America) which were precoated with 4 μg Poly-D-lysine (30-70 KDa, Alfa Aesar, Haverhill, Mass., United States of America) for 2 h at room temperature or overnight at 4° C. and grown to ca. 80% confluence prior to imaging. 30 min before the addition of the RDP, the cell culture media was removed and cells were washed with 500 μL of serum-free DMEM (Gibco, Gaithersburg, Md., United States of America; High Glucose, Glutamax, no FBS). The media was then replaced with 500 μL of serum-free DMEM containing 100 nM Mitotracker Deep Red (Thermo Fisher Scientific, Waltham, Mass., United States of America) to assist in focusing and processing) and either 0.1% DMSO carrier as a control or Palm B in DMSO and incubated for 30 min at 37° C. and 5% CO2. The media was removed, the cells were washed with 500 μL of Live Cell Imaging Solution (Thermo Fisher Scientific, Waltham, Mass., United States of America), and 500 μL of 1 μM RDP-1 along with the Palm B or DMSO as control in Live Cell Imaging Solution was added to each well. […]
# HEPG2 cells [2] = assay: Epifluorescent imaging of DPP-5 and diacetyl rhodol in HepG2 cells (PalmB, ML348, ML349, palmitate); format: cell-based, human; details: 1 mM palmitate for 6 hours post-starvation
# Protocol: 250,000 HEK293T cells/well, 120,000 HeLa cells/well, or 100,000 HepG2 cells/well were plated in 700 μL DMEM glutamax (10% FBS+1% P/S) into 4-well chambered imaging dish (D35C4-20-1.5-N, Cellvis, Mountain View, Calif., United States of America), which were precoated with 5 μg Poly-D-lysine (30-70 KDa, Alfa Aesar, Haverhill, Mass., United States of America) for 2 h. After 20-24 h, the media was replaced by 1 μM Hoechst 33342 and DMSO/5 μM PalmB in 400 μL DMEM glutamax. After 30 min of incubation at 37° C., the cells were washed with 400 μL of Live Cell Imaging Solution and replaced by 1 μM DPP-5 with DMSO or 5 μM of PalmB in Live Cell Imaging Solution. After 20 min of incubation at 37° C., images were obtained on an inverted epifluorescence microscope (Olympus IX83; Olympus Corporation, Tokyo, Japan) attached with EMCCD camera (Photometrics EVOLVE™ Delta, Photometrics, Tucson, Ariz., United States of America) with 40× oil objective (N/A 1.3) for DPP-5 (excitation filter 500/20, dichroic chroma 89007, emission filter 535/30), Hoechst 33342 (excitation filter 402/15, emission filter 455/50, dichroic chroma 89013), and brightfield. Analyses were performed in ImageJ. For data analysis, the average fluorescence intensity per image in each experimental condition was obtained by selecting ROI in Brightfield and applying that to the corresponding DPP-5 image, average background fluorescence intensity was subtracted and data was normalized to the average fluorescence intensity of the DMSO control. Each experiment was repeated in at least two biological replicates with identical results.
# 16,000 HepG2 cells/well were plated in 100 μL DMEM glutamax (10% fetal bovine serum (FBS)) into 4 wells of a 96-well chambered imaging dish (P96-1-N, Cellvis, Mountain View Calif., United States of America), which were precoated with 0.7 μg Poly-D-lysine (30-70 KDa, Alfa Aesar, Haverhill, Mass., United States of America) for 2 hrs. After 24 h, cells were washed with Live Cell Imaging Solution and replaced by 1 μM Hoechst 33342 and DMSO/10 μM ML348/10 μM ML349/10 μM of both ML348 and ML349 in 100 μL DMEM glutamax. After 30 min of incubation at 37° C., the cells were washed with 100 μL of Live Cell Imaging Solution and replaced by 1 μM DPP-5 in Live Cell Imaging Solution. After 20 min of incubation at 37° C., images were obtained on an inverted epifluorescence microscope (Leica DMi8; Leica Microsystems, Wetzlar, Germany) equipped with a camera (Hamamatsu Orca-Flash 4.0; Hamamatsu, Hamamatsu City, Japan) with 63× oil objective (N/A 1.4) and light source (Sutter Lamda XL, 300 W Xenon; Sutter Instrument, Novato, Calif., United States of America) for DPP-5 (YFP filter cube 1525306), Hoechst 33342 (DAPI filter cube), and brightfield using Leica LASX software (Leica Microsystems, Wetzlar, Germany). Analyses were performed in ImageJ. Each experiment was repeated in three biological replicates and 8-12 images were considered for plotting bar graphs for quantification. For detailed data analysis, the average fluorescence intensity per image in each experimental condition was obtained by selecting ROI in Brightfield and applying that to the corresponding DPP-5 image, average background fluorescence intensity was subtracted and data was normalized to the average fluorescence intensity of the control experiment. […] 250,000 HEK293T cells/well were plated in 700 μL DMEM glutamax (10% FBS+1% P/S) into three wells of a 4-well chambered imaging dish (D35C4-20-1.5-N, Cellvis, Mountain View, Calif., United States of America), which were precoated with 5 μg Poly-Dlysine (30-70 KDa, Alfa Aesar, Haverhill, Mass., United States of America) for 2 h. After 18 h, the media was replaced by 1 μM Hoechst 33342 in 400 μL DMEM glutamax. […] After 20 min of incubation at 37° C., images were obtained and analyzed as described above. […]
smiles,measurement,setting,value
"CCCCCCCCCCCCCCCC(=O)[O-].[Na+] [palmitate, sodium palmitate]",effect on APT activity as measured by RDP-1,HEPG2 cells [1],a decrease in APT activity
same,increase in intensity of S-depalmitoylase signal as measured by DPP-5,HEPG2 cells [2],~50%
